Laboratory results reported in PubChem BioAssay (NCI).
“And” between values parts separate entries of the source, which are not always exact repeats. Equal values may be shown once.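 In this assay, cells in 96-well plates receive the compound at five concentrations for 48 hours. Endpoints are linearly interpolated between the surrounding concentrations. At the GI50, growth is halved. TGI: total growth inhibition.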

Columns and labels:
Assay in all cases: NCI-60 cell line screen, 48 h
MOLT-4 leukemia = test system: MOLT-4 leukemia
CAKI-1 renal = test system: CAKI-1 renal
HOP-92 NSCLC = test system: HOP-92 NSCLC
CCRF-CEM leukemia = test system: CCRF-CEM leukemia
OVCAR-4 ovarian = test system: OVCAR-4 ovarian
NCI-H460 lung = test system: NCI-H460 lung
DU-145 prostate = test system: DU-145 prostate
SR leukemia = test system: SR leukemia
RXF 393 renal = test system: RXF 393 renal
TK-10 renal = test system: TK-10 renal

SMILES | TGI (MOLT-4 leukemia) | TGI (CAKI-1 renal) | TGI (HOP-92 NSCLC) | TGI (CCRF-CEM leukemia) | TGI (OVCAR-4 ovarian) | TGI (NCI-H460 lung) | TGI (DU-145 prostate) | TGI (SR leukemia) | TGI (RXF 393 renal) | TGI (TK-10 renal) | GI50 (CAKI-1 renal) | GI50 (HOP-92 NSCLC) | GI50 (OVCAR-4 ovarian) | GI50 (TK-10 renal) | GI50 (MOLT-4 leukemia) | GI50 (CCRF-CEM leukemia) | GI50 (NCI-H460 lung) | GI50 (DU-145 prostate) | GI50 (RXF 393 renal) | GI50 (SR leukemia)
CC1CC2CCCC(O)=C2C(=O)O1 (configuration not stated) | > 100 µM | > 100 µM | > 100 µM | > 100 µM | > 100 µM | > 100 µM | > 100 µM | > 100 µM | > 100 µM | > 100 µM |  |  |  |  |  |  |  |  |  | 
CCOC(=O)N[C@H]1CCc2cc(OC)c(OC)c(OC)c2-c2ccc(SC)c(=O)cc21 | > 100 µM |  | > 100 µM | > 100 µM | > 100 µM | > 100 µM |  | > 100 µM | > 100 µM | > 100 µM | < 0.0182 µM | 0.0198 µM | 0.0677 µM | 7.23 µM |  |  |  |  |  | 
O=C1N=C2Sc3ccc4ccccc4c3N2C1=O | > 100 µM | 46.2 µM | 30.6 µM | > 100 µM | 32.7 µM | 70.2 µM |  | > 100 µM | 37 µM | 81.6 µM |  |  |  |  |  |  |  |  |  | 
CCCC(=O)Nc1cn(COC)c(C(=O)N2C[C@@H]3C[C@]34C2=CC(=O)c2[nH]cc(C)c24)n1 | 3.8 µM and 21.2 µM | 12.1 µM and 16.2 µM | 20.6 µM and 18.2 µM |  | 18.2 µM and 14.3 µM | 13.9 µM and 5.08 µM | 12.7 µM and > 100 µM | 0.488 µM | 16.5 µM and 4.67 µM | 19.1 µM and 6.18 µM | 4.65 µM | 5.51 µM | 4.66 µM | 3 µM | 1.19 µM | 1.96 µM | 2.44 µM | 3.99 µM | 2.21 µM | 
CCOc1ccc(/C=C2\N=C(c3ccc([N+](=O)[O-])cc3)OC2=O)cc1 | > 100 µM | > 100 µM | > 100 µM | > 100 µM | > 100 µM | > 100 µM | > 100 µM | > 100 µM | > 100 µM | > 100 µM |  |  |  |  |  |  |  |  |  | 
CNCCOC(=O)/C=C1\CC[C@H]2[C@@H]([C@@H](O)C(=O)[C@@H]3[C@]2(C)CC[C@H](O)[C@]3(C)C(=O)OC)[C@H]1C | 0.543 µM | 1.08 µM | 3.52 µM | 1.09 µM | 0.484 µM | 0.429 µM | 0.371 µM | 0.626 µM | 0.579 µM | 0.76 µM | 0.315 µM | 0.527 µM | 0.222 µM | 0.262 µM | 0.212 µM | 0.291 µM | 0.201 µM | 0.188 µM | 0.205 µM | 0.244 µM
NNC(=O)CNc1cccc(Br)c1 |  | > 100 µM | > 100 µM |  | > 100 µM | > 100 µM | > 100 µM | > 100 µM | > 100 µM | > 100 µM |  |  |  |  |  |  |  |  |  | 
N=c1c2c(-c3ccccc3)c(-c3ccccc3)n(Cc3ccccc3)c2ncn1C1CCC(O)CC1 (configuration not stated) | 4.83 µM | 1.89 µM | 4.33 µM | 9.25 µM | 13.1 µM | 1.5 µM | 15.3 µM | 2.2 µM | 2.4 µM | 8.96 µM | 0.147 µM | 0.24 µM | 1.43 µM | 0.814 µM | 0.075 µM | 0.321 µM | 0.0542 µM | 0.351 µM | 0.374 µM | 0.034 µM
Cc1nc(N)sc1N=Nc1ccccc1Br | > 100 µM | 81.8 µM | 46.1 µM | > 100 µM | > 61.9 µM | > 67.4 µM | 58.5 µM | > 100 µM | 43.6 µM | 70.4 µM |  |  |  |  |  |  |  |  |  | 
COc1c(O)c2c(=O)cc3c4c5c(cc(=O)c6c(O)c(OC)c(CC(C)O)c(c(c1CC(C)O)c24)c65)OCO3 (configuration not stated) | 4.44 µM | 24.3 µM | 5.47 µM | 16.7 µM | 2.74 µM | 2.32 µM |  | 9.41 µM | 4.03 µM | 8.12 µM |  |  |  |  |  |  |  |  |  | 
S=c1[nH]c(=S)c2cc3ccccc3nc2[nH]1 | > 100 µM | > 100 µM | > 100 µM | > 100 µM | > 100 µM | > 100 µM | > 100 µM |  | > 100 µM | > 100 µM | > 100 µM | 15.4 µM | > 100 µM | 94.2 µM | 4.68 µM | 5.21 µM | 73.2 µM | > 100 µM | > 100 µM | 
COc1cc(Cl)cc(-c2nn(-c3cccc(NC(=O)c4ccc(N5CCOCC5)c(C(F)(F)F)c4)c3)cc2-c2ccncc2)c1 | > 100 µM | > 100 µM |  | > 100 µM | > 100 µM | > 100 µM | > 100 µM | > 100 µM | 23.9 µM |  | 4.4 µM |  | 39.7 µM |  | 5.49 µM | 3.88 µM | 4.8 µM | > 100 µM | 0.83 µM | 3.06 µM
COc1cc(N(CCC#N)CCC#N)ccc1/C(N=Nc1ccc(Cl)cc1)=N/NC(=O)c1cc(Br)ccc1O | > 150 µg/mL | > 150 µg/mL | > 150 µg/mL | > 150 µg/mL | 37 µg/mL | > 150 µg/mL | > 150 µg/mL | > 150 µg/mL | > 150 µg/mL |  | 51.2 µg/mL | > 150 µg/mL | 11.1 µg/mL |  | 32.9 µg/mL | 74 µg/mL | 53.6 µg/mL | 143 µg/mL | 36.9 µg/mL | 96.3 µg/mL
Cc1cc(N[C@@H]2CCC[C@H](Nc3ccnc4cc(Cl)ccc34)C2)nc(N2CCCCCC2)n1 | 5.73 µM |  | 3.36 µM | 10.7 µM | 5.04 µM | 3.2 µM | 10.6 µM | 0.847 µM | 3.1 µM | 3.52 µM |  | 1.62 µM | 1.72 µM | 1.73 µM | 1.6 µM | 1.59 µM | 1.58 µM | 2.99 µM | 1.55 µM | 0.228 µM
Nc1ncn([C@@H]2O[C@H](CO)[C@@H](O)[C@H]2O)c(=O)n1 | 32.1 µM | 3.25 µM | 44.5 µM | > 100 µM |  | 1.78 µM | 9.34 µM | > 100 µM | 4.64 µM |  | 0.275 µM | 3.06 µM |  |  | 3.41 µM | 1.95 µM | 0.232 µM | 0.775 µM | 0.346 µM | 3.5 µM
